Where no end group is shown, it is not given here.
How the values were obtained:
human erythrocytes = experiment: Haemolytic activity; type: cell-based; settings: 37 °C, 30 min; for haemolysis rate: human erythrocytes, relative to 0.1% Triton X-100; for MHC, minimum haemolytic concentration: concentration causing 10% haemolysis of hRBC, 200 μM used when no haemolysis detectable at 100 μM
Experimental: Haemolytic activity of the peptides was assayed by a standard procedure with slight modification. Fresh human erythrocytes were washed three times and resuspended at 1.25% haematocrit in PBS. Forty microlitres PBS-diluted peptide solution was added to a V-bottom 96-well plate (Corning Inc., Lowell, MA, USA), and 160 μl of erythrocytes was added. After incubation at 37 °C for 30 min, the samples were centrifuged, and the absorbance of the supernatant was measured at 450 nm using a multi-well microplate reader (SpectraMax M5; Molecular Devices, Sunnyvale, CA, USA) and compared with the 100% haemolysis caused by 0.1% Triton X-100. The percentage of haemolysis was calculated according to the equation (2): […]

[1] = tested on: L929 mouse fibroblast cells; experiment: Cytotoxicity, MTT assay; type: cell-based; settings: 1 hour
Experimental: The toxicity of the peptides against L929 mouse fibroblast cells was assessed by a standard MTT assay. L929 mouse fibroblast cells from ATCC (Manassas, VA, USA) were maintained in our laboratory. L929 cells were cultured in RPMI 1640 supplemented with 10% (v/v) FBS, 2 mM L-glutamine, 100 U/ml penicillin and […] streptomycin and maintained in a humidified incubator with 5% CO2 at 37 °C. L929 cells (5 × 10^3cells/well) were seeded in 96-well plates (Corning Inc., Lowell, MA, USA) and incubated overnight. Diluted peptides were added to L929 cells and incubated for 1 hour. Then, 20 μl of MTT (5 mg/ml) solution was added and incubated for 4 hours. The medium was removed, and 150 μl of DMSO was added to each well to dissolve the formazan crystals. The absorbance was measured at 490 nm on a microplate reader (SpectraMax M5; Molecular Devices, Sunnyvale, CA, USA). Cell viabilities were calculated by using the equation (3): […]

[2] = tested on: Bacillus subtilis (1.3376); experiment: Antimicrobial activity, broth microdilution MIC; type: cell-based; settings: modified CLSI broth microdilution, LB medium, 1 × 10^6 CFU/ml, 37 °C, 18 to 20 hours, absorbance 600 nm
Experimental: (§1) The antibacterial activities of the peptides against three Gram-negative bacteria and three Gram-positive bacteria strains were measured using a modified version of the Clinical Laboratory and Standards Institute (CLSI) broth microdilution method as described previously. Three Gram-negative bacteria, Escherichia coli (1.8732), Pseudomonas aeruginosa (1.2421), and Klebsiella pneumonia (1.1736), and three Gram-positive bacteria, Staphylococcus aureus (1.8721), Staphylococcus epidermidis (1.4260), and Bacillus subtilis (1.3376), were purchased from the China General Microbiological Culture Collection Centre (CGMCC). Briefly, bacteria were grown in liquid LB medium (tryptone, 10 g/L, yeast extract, 5 g/L and NaCl, 10 g/L) at 37 °C to mid-log phase, and the bacteria were diluted to 1 × 10^6 colony-forming units (CFU)/ml. The peptides were serially diluted with phosphate-buffered saline (PBS), and 50 μl diluted peptides were added to 50 μl of the bacterial suspension in 96-well plate (Corning Inc., Lowell, MA, USA). After incubation at 37 °C for 18 to 20 hours, the absorbance of each well was recorded using a multi-well microplate reader (SpectraMax M5; Molecular Devices, Sunnyvale, CA, USA) at 600 nm. The lowest concentration at which the peptide inhibited complete growth of the bacteria was taken as the minimal inhibitory concentration (MIC).

[3] = tested on: Escherichia coli (1.8732); experiment: Antimicrobial activity, broth microdilution MIC; type: cell-based; settings: modified CLSI broth microdilution, LB medium, 1 × 10^6 CFU/ml, 37 °C, 18 to 20 hours, absorbance 600 nm
Experimental: as §1

[4] = tested on: Klebsiella pneumonia (1.1736); experiment: Antimicrobial activity, broth microdilution MIC; type: cell-based; settings: modified CLSI broth microdilution, LB medium, 1 × 10^6 CFU/ml, 37 °C, 18 to 20 hours, absorbance 600 nm
Experimental: as §1

[5] = tested on: Pseudomonas aeruginosa (1.2421); experiment: Antimicrobial activity, broth microdilution MIC; type: cell-based; settings: modified CLSI broth microdilution, LB medium, 1 × 10^6 CFU/ml, 37 °C, 18 to 20 hours, absorbance 600 nm
Experimental: as §1

[6] = tested on: Staphylococcus aureus (1.8721); experiment: Antimicrobial activity, broth microdilution MIC; type: cell-based; settings: modified CLSI broth microdilution, LB medium, 1 × 10^6 CFU/ml, 37 °C, 18 to 20 hours, absorbance 600 nm
Experimental: as §1

[7] = tested on: Staphylococcus epidermidis (1.4260); experiment: Antimicrobial activity, broth microdilution MIC; type: cell-based; settings: modified CLSI broth microdilution, LB medium, 1 × 10^6 CFU/ml, 37 °C, 18 to 20 hours, absorbance 600 nm
Experimental: as §1

Gram-negative bacteria = type: cell-based, E. coli, P. aeruginosa, K. pneumoniae; settings: ratio of MHC to GM, Gram-negative bacteria
Experimental: (§2) The antimicrobial activities of the peptides, indicated by the minimum inhibitory concentrations (MIC), were determined against a range of Gram-negative (Table 3) and Gram-positive bacterial strains (Table 4). The geometric mean of MIC values (GM) from the three strains was calculated to provide an overall evaluation of antimicrobial activity.
(§3) The therapeutic index (TI) is defined as the ratio of the minimum haemolytic concentration (MHC) of peptides to the GM of peptides, and this value was used to evaluate cell selectivity of peptides towards the negatively charged region of bacterial cell membranes over the zwitterionic mammalian cell membranes.
as §1

Gram-positive bacteria = type: cell-based, S. aureus, S. epidermidis, B. subtilis; settings: ratio of MHC to GM, Gram-positive bacteria
Experimental: as §2, §3, §1

Acinetobacter baumannii = experiment: MIC against biofilm-producing clinical isolate; type: cell-based; settings: biofilm-producing strain, broth microdilution as for the other strains
Experimental: The antibacterial activities of the peptides against three Gram-negative bacteria and three Gram-positive bacteria strains were measured using a modified version of the Clinical Laboratory and Standards Institute (CLSI) broth microdilution method as described previously. Three Gram-negative bacteria, Escherichia coli (1.8732), Pseudomonas aeruginosa (1.2421), and Klebsiella pneumonia (1.1736), and three Gram-positive bacteria, Staphylococcus aureus (1.8721), Staphylococcus epidermidis (1.4260), and Bacillus subtilis (1.3376), were purchased from the China General Microbiological Culture Collection Centre (CGMCC). […] After incubation at 37 °C for 18 to 20 hours, the absorbance of each well was recorded using a multi-well microplate reader (SpectraMax M5; Molecular Devices, Sunnyvale, CA, USA) at 600 nm. […]
Biofilm attachment assays against Acinetobacter baumannii were performed using a previously described method with some modifications. […] The MICs of AMPs against A. baumannii were evaluated as described above. […] The wells were allowed to dry, and the crystal violet-stained well was re-solubilized with 200 μl of 95% ethanol and shaken for 10 min followed by measurement of the absorbance at 595 nm on a microplate reader (SpectraMax M5; Molecular Devices, Sunnyvale, CA, USA). […]

Substance | haemolysis rate (human erythrocytes; 3.13 μM peptide) | MHC, minimum haemolytic concentration (human erythrocytes) | viability of treated L929 cells ([1]; 6.25 μM peptide) | MIC B. subtilis [2] | MIC E. coli [3] | MIC K. pneumoniae [4] | MIC P. aeruginosa [5] | MIC S. aureus [6] | MIC S. epidermidis [7] | TI, therapeutic index (Gram-negative bacteria) | TI, therapeutic index (Gram-positive bacteria) | MIC Acinetobacter baumannii (Acinetobacter baumannii) | viability of treated L929 cells ([1]; 50 μM peptide) | haemolysis rate (human erythrocytes; 100 μM peptide)
AIGSILGALAKGLPTLISWIKNR-NH2 [AR-23, reference compound] | 37.9% | 3.13 µM | approximately 10% | 3.13 µM | 25 µM | 12.5 µM | 12.5 µM | 6.25 µM | 3.13 µM | 0.2 | 0.79 | 12.5 µM | – | –
RIGSILGALAKGLPTLKSWIKNR-NH2 [A(A1R, I17K)] | – | 100 µM | – | 6.25 µM | 25 µM | 25 µM | 12.5 µM | 100 µM | 6.25 µM | 5.04 | 6.35 | – | 6.3% | –
RIGSILGRLAKGLPTLKSWIKNR-NH2 [A(A1R, A8R, I17K)] | – | – | – | 12.5 µM | 12.5 µM | 12.5 µM | 12.5 µM | 100 µM | 6.25 µM | 16 | 10.08 | 12.5 µM | 31.4% | 4.4%
